Assay results taken from patent publication US20220119354A1, “DIAMINO-SUBSTITUTED PYRIDINES AND PYRIMIDINES AS HERBICIDES” (FMC Corporation, priority 2019, published 2022).

What was measured:
Assay type in all cases: in vivo
[1] = tested on: ragweed (common ragweed, Ambrosia elatior); experiment: Test A postemergence, ragweed; conditions: 0 to 100 scale
In short: (§1)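 Post: seedlings 2–10 cm, 1–2 leaves, foliar spray. Pre: soil spray after sowing in loam/sand blend. Both formulated in non-phytotoxic solvent with surfactant; injury scored visually 0–100 after ~10 d.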

[2] = tested on: blackgrass (Alopecurus myosuroides); experiment: Test A postemergence, blackgrass; conditions: 0 to 100 scale
In short: as §1

[3] = tested on: ryegrass, Italian (Lolium multiflorum); experiment: Test A preemergence, Italian ryegrass; conditions: 0 to 100 scale
In short: as §1

[4] = tested on: barnyardgrass (Echinochloa crus-galli); experiment: Test A preemergence, barnyardgrass; conditions: 0 to 100 scale
In short: as §1

[5] = tested on: sedge, umbrella (small-flower umbrella sedge, Cyperus difformis); experiment: Test B flooded paddy test, umbrella sedge; conditions: Flood, 250 g ai/ha, applied to paddy water, 2-leaf stage, visual evaluation after 13 to 15 d
In short: (§2)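 2-leaf seedlings; pots flooded 3 cm above soil; compound added straight to paddy water; depth maintained. Greenhouse 13–15 d. Visual rating vs controls, 0–100 scale (0 = no effect, 100 = complete control).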

[6] = tested on: kochia (Kochia scoparia); experiment: Test A postemergence, kochia; conditions: 0 to 100 scale
In short: as §1

[7] = tested on: rice (Oryza sativa); experiment: Test B flooded paddy test, rice; conditions: Flood, 250 g ai/ha, applied to paddy water, 2-leaf stage, visual evaluation after 13 to 15 d
In short: as §2

[8] = tested on: barnyardgrass (Echinochloa crus-galli); experiment: Test B flooded paddy test, barnyardgrass; conditions: Flood, 250 g ai/ha, applied to paddy water, 2-leaf stage, visual evaluation after 13 to 15 d
In short: as §2

[9] = tested on: galium (catchweed bedstraw, Galium aparine); experiment: Test A postemergence, galium; conditions: 0 to 100 scale
In short: as §1

[10] = tested on: ducksalad (Heteranthera limosa); experiment: Test B flooded paddy test, ducksalad; conditions: Flood, 250 g ai/ha, applied to paddy water, 2-leaf stage, visual evaluation after 13 to 15 d
In short: as §2

[11] = tested on: ryegrass, Italian (Lolium multiflorum); experiment: Test A postemergence, Italian ryegrass; conditions: 0 to 100 scale
In short: as §1

[12] = tested on: kochia (Kochia scoparia); experiment: Test A preemergence, kochia; conditions: 0 to 100 scale
In short: as §1

[13] = tested on: ragweed (common ragweed, Ambrosia elatior); experiment: Test A preemergence, ragweed; conditions: 0 to 100 scale
In short: as §1

[14] = tested on: foxtail, giant (Setaria faberii); experiment: Test A preemergence, giant foxtail; conditions: 0 to 100 scale
In short: as §1

[15] = tested on: pigweed (Amaranthus retroflexus); experiment: Test A preemergence, pigweed; conditions: 0 to 100 scale
In short: as §1

[16] = tested on: foxtail, giant (Setaria faberii); experiment: Test A postemergence, giant foxtail; conditions: 0 to 100 scale
In short: as §1

[17] = tested on: pigweed (Amaranthus retroflexus); experiment: Test A postemergence, pigweed; conditions: 0 to 100 scale
In short: as §1

[18] = tested on: wheat (Triticum aestivum); experiment: Test A postemergence, wheat; conditions: 0 to 100 scale
In short: as §1

[19] = tested on: barnyardgrass (Echinochloa crus-galli); experiment: Test A postemergence, barnyardgrass; conditions: 0 to 100 scale
In short: as §1

[20] = tested on: corn (Zea mays); experiment: Test A postemergence, corn; conditions: 0 to 100 scale
In short: as §1

SMILES: C[C@@H](Nc1ncc(C(F)(F)F)c(N)n1)c1cc2cc(Cl)ccc2o1 [Compound 2]
- Plant response rating, Ragweed ([1]; 125 g ai/ha): 0
- Plant response rating, Ragweed ([1]; 500 g ai/ha): 20
- Plant response rating, Blackgrass ([2]; 125 g ai/ha): 0
- Plant response rating, Blackgrass ([2]; 500 g ai/ha): 0
- Plant response rating, Ryegrass, Italian ([3]; 125 g ai/ha): 0
- Plant response rating, Ryegrass, Italian ([3]; 500 g ai/ha): 0
- Plant response rating, Barnyardgrass ([4]; 125 g ai/ha): 0
- Plant response rating, Barnyardgrass ([4]; 500 g ai/ha): 0
- Plant response rating, Sedge, Umbrella (0 to 100 scale, 0 is no effect, 100 is complete control) [5]: 0
- Plant response rating, Kochia ([6]; 125 g ai/ha): 0
- Plant response rating, Kochia ([6]; 500 g ai/ha): 0
- Plant response rating, Rice (0 to 100 scale, 0 is no effect, 100 is complete control) [7]: 0
- Plant response rating, Barnyardgrass (0 to 100 scale, 0 is no effect, 100 is complete control) [8]: 0
- Plant response rating, Galium ([9]; 125 g ai/ha): 0
- Plant response rating, Galium ([9]; 500 g ai/ha): 30
- Plant response rating, Ducksalad (0 to 100 scale, 0 is no effect, 100 is complete control) [10]: 0
- Plant response rating, Ryegrass, Italian ([11]; 125 g ai/ha): 0
- Plant response rating, Ryegrass, Italian ([11]; 500 g ai/ha): 0
- Plant response rating, Kochia ([12]; 125 g ai/ha): 0
- Plant response rating, Kochia ([12]; 500 g ai/ha): 0
- Plant response rating, Ragweed ([13]; 125 g ai/ha): 0
- Plant response rating, Ragweed ([13]; 500 g ai/ha): 0
- Plant response rating, Foxtail, Giant ([14]; 125 g ai/ha): 0
- Plant response rating, Foxtail, Giant ([14]; 500 g ai/ha): 0
- Plant response rating, Pigweed ([15]; 125 g ai/ha): 10
- Plant response rating, Pigweed ([15]; 500 g ai/ha): 20
- Plant response rating, Foxtail, Giant ([16]; 125 g ai/ha): 0
- Plant response rating, Foxtail, Giant ([16]; 500 g ai/ha): 0
- Plant response rating, Pigweed ([17]; 125 g ai/ha): 40
- Plant response rating, Pigweed ([17]; 500 g ai/ha): 90
- Plant response rating, Wheat ([18]; 125 g ai/ha): 0
- Plant response rating, Wheat ([18]; 500 g ai/ha): 0
- Plant response rating, Barnyardgrass ([19]; 125 g ai/ha): 0
- Plant response rating, Barnyardgrass ([19]; 500 g ai/ha): 10
- Plant response rating, Corn ([20]; 125 g ai/ha): 0
- Plant response rating, Corn ([20]; 500 g ai/ha): 0
